Measurements published in PMC11390765 (Cancer Chemotherapy and Pharmacology, 2024).
Several values for one entry are separate records, joined by “and”; a condition that tells them apart may be missing. Equal values may be shown once. Marks after values point to notes of the source that are not given here.

Assays:
[1] = Plasma pharmacokinetics of capivasertib and its glucuronide metabolite; format: in vivo, human
[2] = tested on: CYP; parameters: method as in unpublished data; conditions: ref unpublished data; cited from earlier work
[3] = Safety and tolerability (adverse events, CTCAE v5.0; full analysis set); format: in vivo, human; conditions: period 1, day 1 cycle 1, midazolam only 1 mg, N=21
Method: Safety and tolerability were evaluated in terms of AEs, which were classified and graded according to the National Cancer Institute (NCI) Common Terminology Criteria for Adverse Events (CTCAE) v5.0; vital signs; 12-lead electrocardiogram (ECG); and clinical laboratory assessments, including clinical chemistry and hematology parameters, urinalysis, HbA1c levels, and lipid profiles.
Efficacy analyses were also performed on the full analysis set. Summary and/or descriptive statistics were used to analyze baseline demographic, safety, and efficacy data; PFS and DoR were estimated using Kaplan–Meier methodology.

[4] = Midazolam plasma pharmacokinetics with or without capivasertib (part A); conditions: for AUC(0-inf): AUCinf; for tmax: median (range); for half-life: t½λz
[5] = human, plasma, oral, geometric mean (gCV%), day 8 of cycle 1, midazolam 1 mg on 3rd day off capivasertib 400 mg BID, N = 16
[6] = human, plasma, oral, geometric mean (gCV%), day 12 of cycle 1, midazolam 1 mg on 4th day on capivasertib 400 mg BID, N = 15
[7] = human, plasma, po, 1 mg, geometric mean (gCV%), day 1 of cycle 1, midazolam alone, single oral 1 mg, N = 18

NC1(C(=O)N[C@@H](CCO[C@@H]2O[C@H](C(=O)O)[C@@H](O)[C@H](O)[C@H]2O)c2ccc(Cl)cc2)CCN(c2ncnc3[nH]ccc23)CC1 [AZ14102143]
AUCτ ([1]; geometric mean (gCV%), 12-h dosing interval, day 12 of cycle 1, capivasertib 400 mg BID): 68,810 h*ng/mL
Ctrough cycle 1, day 13 ([1]; geometric mean (gCV%), 12 h post day 12 capivasertib evening dose): 2575 ng/mL and 2575^f (106.9) ng/mL
Ctrough cycle 1, day 9 ([1]; geometric mean (gCV%), after 3 off-capivasertib-dosing days): 45.22 ng/mL and 45.22^e (242.1) ng/mL
Cmax ([1]; geometric mean (gCV%), day 12 of cycle 1, 4th day on capivasertib 400 mg BID, with single oral midazolam 1 mg): 11,220 ng/mL
t½λz ([1]; geometric mean (gCV%), day 12 of cycle 1, capivasertib 400 mg BID): 3.40 h
tmax ([1]; median (range), day 12 of cycle 1, capivasertib 400 mg BID): 2.03^a (0.6–7.6) h
CYP inhibition in vitro [2]: little or no CYP inhibition

Cc1ncc2n1-c1ccc(Cl)cc1C(c1ccccc1F)=NC2 [midazolam, reference compound]
Abdominal pain, any grade [3]: 0 n (%)
Abdominal pain, grade ≥ 3 [3]: 0 n (%)
Anemia, any grade [3]: 0 n (%)
Anemia, grade ≥ 3 [3]: 0 n (%)
Any AE, any grade [3]: 3 (14.3) n (%)
Any AE, grade ≥ 3 [3]: 0 n (%)
Asthenia, any grade [3]: 0 n (%)
Asthenia, grade ≥ 3 [3]: 0 n (%)
Blood alkaline phosphatase increased, any grade [3]: 0 n (%)
Blood alkaline phosphatase increased, grade ≥ 3 [3]: 0 n (%)
Blood bilirubin increased, any grade [3]: 0 n (%)
Blood bilirubin increased, grade ≥ 3 [3]: 0 n (%)
Blood creatinine increased, any grade [3]: 0 n (%)
Blood creatinine increased, grade ≥ 3 [3]: 0 n (%)
COVID-19, any grade [3]: 0 n (%)
COVID-19, grade ≥ 3 [3]: 0 n (%)
Decreased appetite, any grade [3]: 0 n (%)
Decreased appetite, grade ≥ 3 [3]: 0 n (%)
Diarrhea, any grade [3]: 0 n (%)
Diarrhea, grade ≥ 3 [3]: 0 n (%)
Fatigue, any grade [3]: 0 n (%)
Fatigue, grade ≥ 3 [3]: 0 n (%)
Gamma-glutamyl transferase increased, any grade [3]: 0 n (%)
Gamma-glutamyl transferase increased, grade ≥ 3 [3]: 0 n (%)
Hyperglycemia, any grade [3]: 1 (4.8) n (%)
Hyperglycemia, grade ≥ 3 [3]: 0 n (%)
Hypoalbuminemia, any grade [3]: 0 n (%)
Hypoalbuminemia, grade ≥ 3 [3]: 0 n (%)
Hypokalemia, any grade [3]: 0 n (%)
Hypokalemia, grade ≥ 3 [3]: 0 n (%)
Hyponatremia, any grade [3]: 0 n (%)
Hyponatremia, grade ≥ 3 [3]: 0 n (%)
Hypotension, any grade [3]: 0 n (%)
Hypotension, grade ≥ 3 [3]: 0 n (%)
Large intestinal obstruction, any grade [3]: 0 n (%)
Large intestinal obstruction, grade ≥ 3 [3]: 0 n (%)
Lymphocyte count decreased, any grade [3]: 0 n (%)
Lymphocyte count decreased, grade ≥ 3 [3]: 0 n (%)
Nausea, any grade [3]: 0 n (%)
Nausea, grade ≥ 3 [3]: 0 n (%)
Rash (group term), any grade [3]: 0 n (%)
Rash (group term), grade ≥ 3 [3]: 0 n (%)
Sepsis, any grade [3]: 0 n (%)
Sepsis, grade ≥ 3 [3]: 0 n (%)
Thrombocytopenia, any grade [3]: 0 n (%)
Thrombocytopenia, grade ≥ 3 [3]: 0 n (%)
Ureteric obstruction, any grade [3]: 0 n (%)
Ureteric obstruction, grade ≥ 3 [3]: 0 n (%)
Urticaria, any grade [3]: 0 n (%)
Urticaria, grade ≥ 3 [3]: 0 n (%)
Cmax ([4]; geometric mean (gCV%), day 1 of cycle 1, midazolam alone, single oral 1 mg, N = 18): 8.55^a (39.6) ng/mL
AUClast ([4]; geometric mean (gCV%), day 8 of cycle 1, midazolam 1 mg on 3rd day off capivasertib 400 mg BID, N = 16): 24.49^b (45.3) h*ng/mL
AUC(0-inf) [4, 5]: 28.3 ng·h/mL
AUC(0-inf) [4, 6]: 39.5 ng·h/mL
Cmax ([4]; human, plasma, oral, Cmax, geometric mean (gCV%), day 8 of cycle 1, midazolam 1 mg on 3rd day off capivasertib 400 mg BID, N = 16): 9.9 ng/mL
Cmax ([4]; human, plasma, oral, Cmax, geometric mean (gCV%), day 12 of cycle 1, midazolam 1 mg on 4th day on capivasertib 400 mg BID, N = 15): 9.83 ng/mL
tmax ([4]; human, plasma, oral, day 8 of cycle 1, midazolam 1 mg on 3rd day off capivasertib 400 mg BID, N = 16): ~0.5 h
tmax ([4]; human, plasma, oral, day 12 of cycle 1, midazolam 1 mg on 4th day on capivasertib 400 mg BID, N = 15): ~0.5 h
half-life [4, 5]: 8.52 h
half-life [4, 6]: 7.23 h
AUC(0-t) ([4]; human, plasma, po, 1 mg): 22.4 ng·h/mL
AUC(0-inf) [4, 7]: 25 ng·h/mL
tmax ([4]; human, plasma, po, 1 mg, day 1 of cycle 1, midazolam alone, single oral 1 mg, N = 18): ~0.5 h
half-life [4, 7]: 7.24 h
